Experimental findings from US10071967B2, “N-cycloalkyl-N-{[2-(1-substitutedcycloalkyl)phenyl]methylene}-(thio)carboxamide derivatives” (BAYER CROPSCIENCE AKTIENGESELLSCHAFT, priority 2013, dated 2018) are described below.

One data set has as its system Uromyces appendiculatus. Description: In vivo preventive test on Uromyces appendiculatus (bean rust). The conditions noted are these: Table B1, dose 10 ppm. The protocol: Example B: In Vivo Preventive Test on Uromyces appendiculatus (Bean Rust)
Solvent: 5% by volume of Dimethyl sulfoxide • 10% by volume of Acetone
Emulsifier: […] of Tween® 80 per mg of active ingredient
(§1) The active ingredients are made soluble and homogenized in a mixture of Dimethyl sulfoxide/Acetone/Tween® 80 and then diluted in water to the desired concentration.
The young plants of bean are treated by spraying the active ingredient prepared as described above.
Control plants are treated only with an aqueous solution of Acetone/Dimethyl sulfoxide/Tween® 80.
After 24 hours, the plants are contaminated by spraying the leaves with an aqueous suspension of Uromyces appendiculatus spores. The contaminated bean plants are incubated for 24 hours at 20° C. and at 100% relative humidity and then for 10 days at 20° C. and at 70-80% relative humidity.
(§2) The test is evaluated 11 days after the inoculation. 0% means an efficacy which corresponds to that of the control plants while an efficacy of 100% means that no disease is observed.
On to `Cc1nn(C)c(F)c1C(=O)N(Cc1ccccc1C1CCCCC1)C1CC1` [399 from WO-2007/087906, N-(2-cyclohexylbenzyl)-N-cyclopropyl-5-fluoro-1,3-dimethyl-1H-pyrazole-4-carboxamide, reference compound], for which the Efficacy turned out to be 0%.
Same read-out and setting: with `Cc1ccc(C2(C)CC2)c(CN(C(=O)c2cn(C)nc2C(F)F)C2CC2)c1` [I.033] the figure was 100%; with `Cn1cc(C(=O)N(Cc2cc(Cl)ccc2C2(C)CC2)C2CC2)c(C(F)F)n1` [I.029, N-[5-chloro-2-(1-methylcyclopropyl)benzyl]-N-cyclopropyl-3-(difluoromethyl)-1-methyl-1H-pyrazole-4-carboxamide], 98%.

Still in this data set, the particulars now being: dose of ppm of active ingredient (number not given); comparison with WO-2007/087906, text.
With `Cc1nn(C)c(F)c1C(=O)N(Cc1ccccc1C1CCCCC1)C1CC1` [399 from WO-2007/087906, N-(2-cyclohexylbenzyl)-N-cyclopropyl-5-fluoro-1,3-dimethyl-1H-pyrazole-4-carboxamide, reference compound], the protection entry is “no protection”.

Test system in another data set: not listed separately
Description: log P by HPLC on a reversed-phase column (C 18), EEC Directive 79/831 Annex V.A8. The conditions noted are these: HPLC reversed-phase C 18, 40° C., 0.1% aqueous formic acid and acetonitrile, gradient 10% to 90% acetonitrile. The format is physicochemical. The protocol: In table 1, the log P values were determined in accordance with EEC Directive 79/831 Annex V.A8 by HPLC (High Performance Liquid Chromatography) on a reversed-phase column (C 18), using the method described below: Temperature: 40° C.; Mobile phases: 0.1% aqueous formic acid and acetonitrile; linear gradient from 10% acetonitrile to 90% acetonitrile. Calibration was carried out using unbranched alkan-2-ones (comprising 3 to 16 carbon atoms) with known log P values (determination of the log P values by the retention times using linear interpolation between two successive alkanones). lambda-max-values were determined using UV-spectra from 200 nm to 400 nm and the peak values of the chromatographic signals.
In general, logP refers to the decadic logarithm of the partition coefficient of the neutral form, usually between octanol and water. A higher logP goes with a more lipophilic compound. As to `Cn1cc(C(=O)N(Cc2cc(F)ccc2C2(C)CC2(Cl)Cl)C2CC2)c(C(F)F)n1` (centres unmarked) [Example 1.153], the logP was 3.68.
The same measure, in the same setting: with `COCC1(c2ccc(C)cc2CN(C(=O)c2cn(C)nc2C)C2CC2)CC1` [Example 1.157] the figure was 2.61.

The data set is the same for the next values; noted with them: HPLC, reversed-phase column (C 18), 40° C.; 0.1% aqueous formic acid and acetonitrile, linear gradient 10% to 90% acetonitrile.
Take `CCCC1(c2ccc(C)cc2CN(C(=O)c2c(C)nn(C)c2F)C2CC2)CC1` [I.113]: the logP is 4.61.
Still for that read-out and setting: with `Cc1ccc(C2(C)CC2)c(CN(C(=O)c2cn(C)nc2C(F)F)C2CC2)c1` [I.033] the figure was 3.74; with `CCC1(c2cc(C)c(F)cc2CN(C(=O)c2nn(C)nc2C(F)F)C2CC2)CC1` [Example 1.079], 4.85.
Same read-out and setting: with `Cc1ccc(C2(C)CC2)c(CN(C(=S)c2oc(C)nc2C(F)F)C2CC2)c1` [Example 1.053] the figure was 4.92; with `Cn1nc(C(=O)N(Cc2ccc(-c3ccccc3)cc2C2(C)CC2)C2CC2)c(C(F)F)n1` [Example 1.022], 5.00; with `Cn1nc(C(=S)N(Cc2ccc(Cl)cc2C2(C)CC2)C2CC2)c(C(F)F)n1` [Example 1.011], 5.11.
Still for that read-out and setting: to `Cc1ccc(C2(C(C)C)CC2)c(CN(C(=O)c2cc(C)oc2C)C2CC2)c1` [Example 1.118] belongs 5.65.
`CCOC1(c2ccc(C)cc2CN(C(=O)c2nn(C)nc2C(F)F)C2CC2)CC1` [Example 1.126] had a logP of 4.21.
The same measure, in the same setting: with `Cn1cc(C(=O)N(Cc2ccc(F)cc2C2(C(F)F)CC2)C2CC2)c(C(F)F)n1` [Example 1.133] the figure was 3.09; with `Cc1cc(C(=O)N(Cc2ccc(Cl)cc2C2(C)CC2)C2CC2)c(C)o1` [Example 1.007], 4.98.
Still for that read-out and setting: to `CCC1(c2cc(Cl)ccc2CN(C(=O)c2nn(C)nc2C(F)F)C2CC2)CC1` [Example 1.073] belongs 4.87.
Same read-out and setting: to `CCOC1(c2ccc(C)cc2CN(C(=O)c2cn(C)nc2C(F)F)C2CC2)CC1` [Example 1.128] belongs 3.60; to `Cc1ccc(C2(C(F)F)CC2)c(CN(C(=O)c2c(C)nn(C)c2F)C2CC2)c1` [Example 1.139], 3.21; to `Cn1cc(C(=O)N(Cc2cc(Br)ccc2C2(C(F)F)CC2)C2CC2)c(C(F)F)n1` [Example 1.134], 3.44.
As for `CCC1(c2ccccc2CN(C(=S)c2cn(C)nc2C(F)F)C2CC2)CC1` [Example 1.068], the logP is 4.37.
Still for that read-out and setting: with `Cc1ccc(C2(C)CC2)c(CN(C(=O)c2c(C(F)F)nn(C(C)(C)C)c2C(F)F)C2CC2)c1` [Example 1.039] the figure was 5.35; with `Cc1nn(C)cc1C(=O)N(Cc1cc(Br)ccc1C1(C)CC1)C1CC1` [Example 1.026], 3.44.
On the same count and under the same terms, with `CCC1(c2cc(Cl)ccc2CN(C(=O)c2c(C)nn(C)c2F)C2CC2)CC1` [Example 1.069] the figure was 4.25; with `Cc1ccc(C2(C)CC2)c(CN(C(=O)c2cc(C)oc2C)C2CC2)c1` [Example 1.047], 4.85; with `CCC1(c2ccc(C)cc2CN(C(=O)c2c(OC(F)F)nn(C)c2F)C2CC2)CC1` [Example 1.098], 4.72.
Same read-out and setting: to `C#CC1(c2ccc(C)cc2CN(C(=O)c2c(C)nn(C)c2F)C2CC2)CC1` [Example 1.065] belongs 3.21.
In turn, `Cc1ccc(C2(C(C)C)CC2)c(CN(C(=O)c2nn(C)nc2C(F)F)C2CC2)c1` [Example 1.121] returned a logP of 5.08.

Still in this data set, the particulars now being: Table 4, compounds of formula (IV); HPLC C 18, 40° C., 0.1% aqueous formic acid and acetonitrile.
Turning to “1-(2-formyl-4-methylphenyl)cyclopropanecarbonitrile [IV.16]”, the logP was 2.08.
The same measure, in the same setting: to “3-fluoro-2-(1-methylcyclopropyl)benzaldehyde [IV.14]” belongs 3.13.

The same data set, now with this note: reversed-phase C18 HPLC column; given in the preparation examples.
As a reminder, the chromatographic logP is lipophilicity estimated from chromatographic retention. A lower chromatographic logP goes with lower lipophilicity. On to `Cn1cc(C(=O)N(Cc2cc(F)ccc2C2(C(F)F)CC2)C2CC2)c(C(F)F)n1` [I.137, N-cyclopropyl-3-(difluoromethyl)-N-{2-[1-(difluoromethyl)cyclopropyl]-5-fluorobenzyl}-1-methyl-1H-pyrazole-4-carboxamide], for which the chromatographic logP amounted to 3.09.

The subject of the next data set is Phakopsora pachyrhizi. The experiment in a line: In vivo preventive test on Phakopsora pachyrhizi (soybean rust). The conditions noted are these: Table C1, dose 10 ppm. Here is the method: Example C: In Vivo Preventive Test on Phakopsora pachyrhizi (Soybean Rust)
Solvent: 24.5 parts by weight of acetone • 24.5 parts by weight of N,N-dimethylacetamide
Emulsifier: 1 part by weight of alkylaryl polyglycol ether
To produce a suitable preparation of active compound, 1 part by weight of active compound is mixed with the stated amounts of solvent and emulsifier, and the concentrate is diluted with water to the desired concentration.
To test for preventive activity, young plants are sprayed with the preparation of active compound at the stated rate of application. After the spray coating has dried on, the plants are inoculated with an aqueous spore suspension of the causal agent of soybean rust (Phakopsora pachyrhizi) and stay for 24 h without light in an incubation cabinet at approximately 24° C. and a relative atmospheric humidity of 95%.
The plants remain in the incubation cabinet at approximately 24° C. and a relative atmospheric humidity of approximately 80% and a day/night interval of 12 h. The test is evaluated 7 days after the inoculation. 0% means an efficacy which corresponds to that of the untreated control, while an efficacy of 100% means that no disease is observed.
As for `CCCC1(c2ccc(C)cc2CN(C(=O)c2c(C)nn(C)c2F)C2CC2)CC1` [I.113], the Efficacy is 85%.
Still for that read-out and setting: to `Cc1ccc(C2(C)CC2)c(CN(C(=O)c2c(C)nn(C)c2F)C2CC2)c1` [I.040] belongs 99%.
Still for that read-out and setting: with `Cn1nc(C(F)F)c(C(=O)N(Cc2ccccc2C2CC2)C2CC2)c1F` [47 from WO-2010/130767, N-cyclopropyl-N-(2-cyclopropylbenzyl)-3-(difluoromethyl)-5-fluoro-1-methyl-1H-pyrazole-4-carboxamide, reference compound] the figure was 0%.
The same measure, in the same setting: with `Cn1nc(C(F)F)c(C(=O)N(Cc2cc(F)ccc2C2CC2)C2CC2)c1F` [123 from WO-2010/130767, N-cyclopropyl-N-(2-cyclopropyl-5-fluorobenzyl)-3-(difluoromethyl)-5-fluoro-1-methyl-1H-pyrazole-4-carboxamide, reference compound] the figure was 0/23.

Still in this data set, the particulars now being: Table C2, dose 10 ppm.
Regarding `CCC1(c2ccc(Cl)cc2CN(C(=O)c2c(C)nn(C)c2F)C2CC2)CC1` [I.087], the Efficacy was determined as 79%.

Still in this data set, the particulars now being: dose of ppm of active ingredient (number not given); comparison with WO-2010/130767, text.
Turning to `CCC1(c2ccc(Cl)cc2CN(C(=O)c2c(C)nn(C)c2F)C2CC2)CC1` [I.087], the protection result is on record as “at least 70%”.
Same read-out and setting: with `Cn1nc(C(F)F)c(C(=O)N(Cc2cc(Cl)ccc2C2CC2)C2CC2)c1F` [41 from WO-2010/130767, N-(5-chloro-2-cyclopropylbenzyl)-N-cyclopropyl-3-(difluoromethyl)-5-fluoro-1-methyl-1H-pyrazole-4-carboxamide, reference compound] the entry was “no protection”.

In another data set the test system is Puccinia recondita. Description: In vivo preventive test on Puccinia recondita (brown rust on wheat). The conditions noted are these: Table A1, dose 100 ppm; examples from WO-2012/052490 formulated in DMF with 2% of alkylarylpolyglycolether. The protocol: Example A: In Vivo Preventive Test on Puccinia recondita (Brown Rust on Wheat) […]
Emulsifier: 1 μL of Tween® 80 per mg of active ingredient
as §1
The young plants of wheat are treated by spraying the active ingredient prepared as described above. Control plants are treated only with an aqueous solution of Acetone/Dimethyl sulfoxide/Tween® 80. After 24 hours, the plants are contaminated by spraying the leaves with an aqueous suspension of Puccinia recondita spores. The contaminated wheat plants are incubated for 24 hours at 20° C. and at 100% relative humidity and then for 10 days at 20° C. and at 70-80% relative humidity.
as §2
The compound `Cn1nc(C(F)F)c(C(=O)NCc2ccccc2C2CC2)c1F` [65 from WO-2012/052490, N-(2-cyclopropylbenzyl)-3-(difluoromethyl)-5-fluoro-1-methyl-1H-pyrazole-4-carboxamide] yielded an Efficacy of 0%.
Same read-out and setting: to `CCC1(c2ccccc2CN(C(=O)c2cn(C)nc2C(F)F)C2CC2)CC1` [I.067] belongs 98%.
The same measure, in the same setting: to `Cn1nc(C(F)F)c(C(=O)NCc2ccccc2C2CC2)c1Cl` [66 from WO-2012/052490, 5-chloro-N-(2-cyclo-propylbenzyl)-3-(difluoromethyl)-1-methyl-1H-pyrazole-4-carboxamide] belongs 0%.

Still in this data set, the particulars now being: dose of 100 ppm of active ingredient; comparison with WO-2012/052490.
On to `Cn1nc(C(F)F)c(C(=O)NCc2ccccc2C2CC2)c1F` [65 from WO-2012/052490, N-(2-cyclopropylbenzyl)-3-(difluoromethyl)-5-fluoro-1-methyl-1H-pyrazole-4-carboxamide], for which the protection result was “no protection”.
Regarding `CCC1(c2ccccc2CN(C(=O)c2cn(C)nc2C(F)F)C2CC2)CC1` [I.067], the protection result is “at least 98%”.
On the same count and under the same terms, to `Cn1nc(C(F)F)c(C(=O)NCc2ccccc2C2CC2)c1Cl` [66 from WO-2012/052490, 5-chloro-N-(2-cyclo-propylbenzyl)-3-(difluoromethyl)-1-methyl-1H-pyrazole-4-carboxamide] belongs “no protection”.
